# Where two headings read alike, the source gives them in different places.
# Target: T1, CaV2.2 (Homo sapiens, UniProt Q00975)
# T1 construct: expressed in transfected cells; host or cells: unnamed doxycycline-inducible cell line
# Assay: High-throughput CaV2.2/Kir2.3 FLIPR fluorescent assay
# Type: cell-based
# Conditions: Fluo-4 FLIPR, closed or inactivated state not stated, read-out: FLIPR data CaV2.2
# Description: Cells were plated in 384-well, clear-bottom, black-walled, poly-D-lysine coated plates (Becton Dickinson, Franklin Lake, N.J.) 2 days prior to use in the FLIPR assay. 100 μL of cells (1.4×10^6 cell/mL) containing doxycyline (Sigma-Aldrich, 1.5 μg/mL; to induce channel expression) were added to each well using a Multidrop (Thermo Scientific, Waltham, Mass.) and were maintained in 5% CO2 incubator at 37° C. On the morning of the assay, cells were transferred to a 5% CO2 incubator at 29° C.
# Cells were washed with a wash buffer containing (in mM): 118 NaCl, 18.4 HEPES, 11.7 D-glucose, 2 CaCl2, 0.5 MgSO4, 4.7 KCl, 1.2 KH2PO4, pH adjusted to 7.2 with NaOH. 4.4 μM of the fluorescent indicator dye, Fluo-4 (Invitrogen), prepared in pluronic acid (Sigma-Aldrich), was loaded into the wells and incubated for 45 minutes at 29° C. in 5% CO2. Cells were then rinsed with either a 2 mM KCl closed-state buffer (in mM: 138.5 NaCl, 10 HEPES, 10 D-glucose, 1 CaCl2, and 2 KCl, with the pH adjusted to 7.4 with NaOH) when performing the closed-state assay or 12.5 mM KCl inactivated-state buffer (in mM: 128 NaCl, 10 HEPES, 10 D-glucose, 1 CaCl2, and 12.5 mM KCl, with the pH adjusted to 7.4 with NaOH) when performing the inactivated-state assay.
# Calcium entry was evoked with an addition of 130 mM KCl stimulation buffer (in mM: 10.5 NaCl, 10 HEPES, 10 D-glucose, 1 CaCl2, and 130 KCl, with the pH adjusted to 7.4 with NaOH) for both the closed-state or inactivated-state assay. A change in the Fluo-4 fluorescence signal was assessed using FLIPR^TETRA™ instrument (Molecular Devices, Sunnyvale, Calif.) for 3 minutes following the elevation of extracellular KCl using an illumination wavelength of 470-495 nm with emissions recorded at 515-575 nm.
# Concentration-dependent response curves were obtained by comparing the fluorescence signal in the presence of compound and fitted with a logistic function (1) to obtain the concentration that inhibited 50% (IC50) of the RLU signal using OriginPro v.7.5 software (OriginLab, Northampton, Mass.).
# To assess the quality of the FLIPR assays the Z-factor (2) was used to quantify the suitability of the assay conditions using the following equation: […]
# Data are expressed as mean and standard deviation (SD).
# T1 sequence (Q00975 whole entry): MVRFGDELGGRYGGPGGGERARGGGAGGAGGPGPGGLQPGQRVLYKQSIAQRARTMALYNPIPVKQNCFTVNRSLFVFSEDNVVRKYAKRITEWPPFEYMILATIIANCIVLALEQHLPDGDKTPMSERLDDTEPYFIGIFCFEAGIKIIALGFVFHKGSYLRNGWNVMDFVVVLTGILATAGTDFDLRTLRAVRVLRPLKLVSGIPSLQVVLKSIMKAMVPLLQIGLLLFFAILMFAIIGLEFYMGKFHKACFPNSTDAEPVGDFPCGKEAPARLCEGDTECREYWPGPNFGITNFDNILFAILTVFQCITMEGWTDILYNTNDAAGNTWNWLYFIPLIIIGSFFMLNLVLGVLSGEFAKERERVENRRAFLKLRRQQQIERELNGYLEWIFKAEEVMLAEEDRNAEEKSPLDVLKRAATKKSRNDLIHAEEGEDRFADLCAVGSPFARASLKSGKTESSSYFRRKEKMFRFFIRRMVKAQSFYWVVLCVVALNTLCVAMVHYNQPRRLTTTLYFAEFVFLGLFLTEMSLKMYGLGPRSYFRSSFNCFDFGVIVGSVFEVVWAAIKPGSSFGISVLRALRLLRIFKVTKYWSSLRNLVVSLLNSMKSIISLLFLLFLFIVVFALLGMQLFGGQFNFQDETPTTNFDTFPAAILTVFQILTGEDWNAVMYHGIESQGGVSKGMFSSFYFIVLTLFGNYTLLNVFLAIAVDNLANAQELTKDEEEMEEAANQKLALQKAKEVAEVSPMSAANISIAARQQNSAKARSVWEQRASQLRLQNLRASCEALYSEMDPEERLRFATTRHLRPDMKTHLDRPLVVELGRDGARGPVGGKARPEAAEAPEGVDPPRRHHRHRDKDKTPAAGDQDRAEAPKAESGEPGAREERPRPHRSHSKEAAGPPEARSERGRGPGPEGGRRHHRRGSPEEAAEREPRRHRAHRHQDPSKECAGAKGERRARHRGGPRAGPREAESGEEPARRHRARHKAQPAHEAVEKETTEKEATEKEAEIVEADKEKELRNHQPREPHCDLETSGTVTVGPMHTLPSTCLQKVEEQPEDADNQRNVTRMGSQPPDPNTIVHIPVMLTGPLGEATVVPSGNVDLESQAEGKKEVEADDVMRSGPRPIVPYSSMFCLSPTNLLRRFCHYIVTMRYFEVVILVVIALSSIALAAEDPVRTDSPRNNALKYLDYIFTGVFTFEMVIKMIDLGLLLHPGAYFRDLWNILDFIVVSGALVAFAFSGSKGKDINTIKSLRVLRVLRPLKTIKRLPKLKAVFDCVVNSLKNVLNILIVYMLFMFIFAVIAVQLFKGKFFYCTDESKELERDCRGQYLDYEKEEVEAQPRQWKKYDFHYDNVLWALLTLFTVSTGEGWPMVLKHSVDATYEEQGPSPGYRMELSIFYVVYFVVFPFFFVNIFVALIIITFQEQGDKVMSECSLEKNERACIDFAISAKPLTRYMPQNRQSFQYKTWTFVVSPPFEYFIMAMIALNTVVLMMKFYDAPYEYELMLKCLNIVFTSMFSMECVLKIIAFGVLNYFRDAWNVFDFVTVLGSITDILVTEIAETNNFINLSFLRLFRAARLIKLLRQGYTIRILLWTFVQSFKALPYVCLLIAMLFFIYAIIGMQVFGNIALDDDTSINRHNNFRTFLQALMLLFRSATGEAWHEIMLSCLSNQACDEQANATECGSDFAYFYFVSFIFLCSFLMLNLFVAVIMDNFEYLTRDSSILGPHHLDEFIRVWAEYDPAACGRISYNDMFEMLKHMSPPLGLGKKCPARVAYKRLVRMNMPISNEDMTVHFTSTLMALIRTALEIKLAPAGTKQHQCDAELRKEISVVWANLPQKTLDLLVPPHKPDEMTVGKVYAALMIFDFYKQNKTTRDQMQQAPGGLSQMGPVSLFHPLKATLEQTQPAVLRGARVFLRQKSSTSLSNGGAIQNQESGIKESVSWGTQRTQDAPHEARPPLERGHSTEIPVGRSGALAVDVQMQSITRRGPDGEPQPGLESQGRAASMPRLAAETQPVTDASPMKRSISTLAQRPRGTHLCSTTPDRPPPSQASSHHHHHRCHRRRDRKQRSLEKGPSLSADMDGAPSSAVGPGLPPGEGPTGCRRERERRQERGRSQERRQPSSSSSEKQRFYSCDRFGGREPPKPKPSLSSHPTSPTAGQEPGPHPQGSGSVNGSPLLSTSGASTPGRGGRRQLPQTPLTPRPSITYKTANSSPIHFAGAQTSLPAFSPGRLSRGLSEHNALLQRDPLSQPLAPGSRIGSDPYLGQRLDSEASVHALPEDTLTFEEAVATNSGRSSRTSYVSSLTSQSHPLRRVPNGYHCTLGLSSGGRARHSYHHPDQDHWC
# T1 sequence (P54284 whole entry partner): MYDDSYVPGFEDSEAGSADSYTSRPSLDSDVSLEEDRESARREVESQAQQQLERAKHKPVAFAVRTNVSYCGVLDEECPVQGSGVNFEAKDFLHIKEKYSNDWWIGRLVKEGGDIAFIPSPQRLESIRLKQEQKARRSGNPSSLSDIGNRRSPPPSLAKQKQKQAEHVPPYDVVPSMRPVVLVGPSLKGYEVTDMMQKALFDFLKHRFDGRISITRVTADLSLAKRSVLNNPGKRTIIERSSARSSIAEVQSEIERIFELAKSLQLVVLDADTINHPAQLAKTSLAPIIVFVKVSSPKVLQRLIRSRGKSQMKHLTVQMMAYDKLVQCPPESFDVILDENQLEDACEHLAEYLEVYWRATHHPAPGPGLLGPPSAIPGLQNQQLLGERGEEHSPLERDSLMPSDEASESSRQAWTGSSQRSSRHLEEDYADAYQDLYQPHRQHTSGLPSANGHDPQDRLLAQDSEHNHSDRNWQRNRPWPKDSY
# T1 sequence (P54289 25-946 partner limits assumed): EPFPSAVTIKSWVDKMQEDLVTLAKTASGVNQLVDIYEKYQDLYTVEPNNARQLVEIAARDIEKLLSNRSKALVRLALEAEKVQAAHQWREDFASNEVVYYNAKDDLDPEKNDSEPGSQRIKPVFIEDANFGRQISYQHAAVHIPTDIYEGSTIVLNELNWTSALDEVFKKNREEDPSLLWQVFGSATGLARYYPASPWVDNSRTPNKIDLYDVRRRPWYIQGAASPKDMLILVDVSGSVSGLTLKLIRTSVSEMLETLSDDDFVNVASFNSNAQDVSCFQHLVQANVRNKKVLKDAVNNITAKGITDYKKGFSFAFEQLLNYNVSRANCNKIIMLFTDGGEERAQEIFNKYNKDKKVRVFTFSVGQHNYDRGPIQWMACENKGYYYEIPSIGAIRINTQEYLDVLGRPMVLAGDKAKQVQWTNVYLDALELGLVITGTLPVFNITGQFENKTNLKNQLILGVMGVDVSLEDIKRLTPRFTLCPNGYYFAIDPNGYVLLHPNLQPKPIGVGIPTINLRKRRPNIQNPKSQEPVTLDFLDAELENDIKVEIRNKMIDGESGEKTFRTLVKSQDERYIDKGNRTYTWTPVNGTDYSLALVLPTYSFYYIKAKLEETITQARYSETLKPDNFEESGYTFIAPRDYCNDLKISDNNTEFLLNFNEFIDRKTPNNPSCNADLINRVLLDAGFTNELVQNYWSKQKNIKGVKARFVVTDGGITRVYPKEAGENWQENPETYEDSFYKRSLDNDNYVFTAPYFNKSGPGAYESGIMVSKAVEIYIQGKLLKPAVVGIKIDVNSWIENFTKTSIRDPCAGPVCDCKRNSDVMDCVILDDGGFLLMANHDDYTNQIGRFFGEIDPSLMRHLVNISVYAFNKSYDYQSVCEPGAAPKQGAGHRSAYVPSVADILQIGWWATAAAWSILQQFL
# T1 sequence (P54289 947-1103 partner limits assumed): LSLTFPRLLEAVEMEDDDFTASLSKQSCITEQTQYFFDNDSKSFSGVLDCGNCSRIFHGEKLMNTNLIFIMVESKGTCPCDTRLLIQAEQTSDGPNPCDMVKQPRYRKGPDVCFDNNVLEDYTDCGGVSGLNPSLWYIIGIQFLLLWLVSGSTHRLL
Structure (SMILES),IC50 (Table 5),IC50 (Table 4)
"CC(C)(C(=O)NCC(O)c1ccccc1Cl)S(=O)(=O)c1cccc(C(F)(F)F)c1 (stereo not drawn) [Compound 141, N-(2-(2-chlorophenyl)-2-hydroxyethyl)-2-methyl-2-((3-(trifluoromethyl)phenyl)sulfonyl)propanamide]",1.09 µM,–
"NC1(C(=O)NCc2ccc(S(=O)(=O)c3cccc(C(F)(F)F)c3)cc2)CCOCC1 [Compound 60, 4-amino-N-(4-((3-(trifluoromethyl)phenyl)sulfonyl)benzyl)tetrahydro-2H-pyran-4-carboxamide]",–,4.23 µM
"Cc1cc(C(=O)NCC(C)(C)S(=O)(=O)c2cccc(C(F)(F)F)c2)cc(C)c1O [Compound 167, 4-hydroxy-3,5-dimethyl-N-(2-methyl-2-((3-(trifluoromethyl)phenyl)sulfonyl)propyl)benzamide]",1.4 µM,–
"CC(C)(CNC(=O)c1ccc(F)cc1)S(=O)(=O)c1cccc(C(F)(F)F)c1 [Compound 157, 4-fluoro-N-(2-methyl-2-((3-(trifluoromethyl)phenyl)sulfonyl)propyl)benzamide]",5.37 µM,–
"CC(C)(CCNC(=O)C1(N)CCC1)S(=O)(=O)c1cccc(C(F)(F)F)c1 [Compound 203, 1-amino-N-(3-methyl-3-((3-(trifluoromethyl)phenyl)sulfonyl)butyl)cyclobutanecarboxamide]",5.85 µM,–
"CNC(C)(C)C(=O)NCCC(C)(C)S(=O)(=O)c1cccc(C(F)(F)F)c1 [Compound 204, 2-methyl-N-(3-methyl-3-((3-(trifluoromethyl)phenyl)sulfonyl)butyl)-2-(methylamino)propanamide]",10.2 µM,–
"O=C(NCc1ccc(S(=O)(=O)c2cccc(C(F)(F)F)c2)cc1)C1CCCN1 (stereo in doubt) [Compound 77, (R)-N-(4-((3-(trifluoromethyl)phenyl)sulfonyl)benzyl)pyrrolidine-2-carboxamide]",–,0.69 µM
"CC(C)(NC(=O)C(C)(C)S(=O)(=O)c1cccc(C(F)(F)F)c1)c1ccccc1 [Compound 126, 2-methyl-N-(2-phenylpropan-2-yl)-2-((3-(trifluoromethyl)phenyl)sulfonyl)propanamide]",4.31 µM,–
"COc1cc(CCNC(=O)CC(C)(C)S(=O)(=O)c2cccc(C(F)(F)F)c2)ccc1O [Compound 153, N-(4-hydroxy-3-methoxyphenetnyl)-3-methyl-3-((3-(trifluoromethyl)phenyl)sulfonyl)butanamide]",1.22 µM,–
"O=C(NCc1ccccc1S(=O)(=O)c1cccc(C(F)(F)F)c1)[C@H]1CCCN1 [Compound 78, (R)-N-(2-((3-(trifluoromethyl)phenyl)sulfonyl)benzyl)pyrrolidine-2-carboxamide]",–,3.75 µM
"CC(C)(C)C(=O)Nc1ncccc1C(=O)NCC(C)(C)S(=O)(=O)c1cccc(C(F)(F)F)c1 [Compound 163, N-(2-methyl-2-((3-(trifluoromethyl)phenyl)sulfonyl)propyl)-2-pivalamidonicotinamide]",2.25 µM,–
"Cc1c(C(=O)NCCC(C)(C)S(=O)(=O)c2cccc(C(F)(F)F)c2)ncn(C(C)C)c1=O [Compound 215, 1-isopropyl-5-methyl-N-(3-methyl-3-((3-(trifluoromethyl)phenyl)sulfonyl)butyl)-6-oxo-1,6-dihydropyrimidine-4-carboxamide]",3.16 µM,–
"Cc1ccc(C(=O)NCC(C)(C)S(=O)(=O)c2cccc(C(F)(F)F)c2)c(C)c1 [Compound 169, 2,4-dimethyl-N-(2-methyl-2-((3-(trifluoromethyl)phenyl)sulfonyl)propyl)benzamide]",1.36 µM,–
"CC(C)(CNC(=O)c1ccnc(Cl)c1)S(=O)(=O)c1cccc(C(F)(F)F)c1 [Compound 180, 2-chloro-N-(2-methyl-2-((3-(trifluoromethyl)phenyl)sulfonyl)propyl)isonicotinamide]",3.96 µM,–
"CO[C@H]1CN[C@@H](C(=O)NCc2ccc(S(=O)(=O)c3cccc(C(F)(F)F)c3)cc2)C1 [Compound 82, (2R,4R)-4-methoxy-N-(4-((3-(trifluoromethyl)phenyl)sulfonyl)benzyl)pyrrolidine-2-carboxamide]",–,0.97 µM
"O=C(NCc1ccc(S(=O)(=O)c2cccc(C(F)(F)F)c2)cc1)[C@@H]1C[C@@H](O)CN1 [Compound 74, (2S,4R)-4-hydroxy-N-(4-((3-(trifluoromethyl)phenyl)sulfonyl)benzyl)pyrrolidine-2-carboxamide]",–,2.36 µM
"NC1(C(=O)NCc2ccc(S(=O)(=O)c3cccc(C(F)(F)F)c3)cc2)CCC1 [Compound 66, 1-amino-N-(4-((3-(trifluoromethyl)phenyl)sulfonyl)benzyl)cyclobutanecarboxamide]",–,1.93 µM
"CC(C)(NC(=O)CC(C)(C)S(=O)(=O)c1cccc(C(F)(F)F)c1)c1ccccc1 [Compound 152, 3-methyl-N-(2-phenylpropan-2-yl)-3-((3-(trifluoromethyl)phenyl)sulfonyl)butanamide]",4.24 µM,–
"NC1(C(=O)NCc2ccc(S(=O)(=O)c3cccc(C(F)(F)F)c3)cc2)CCS(=O)(=O)CC1 [Compound 61, 4-amino-N-(4-((3-(trifluoromethyl)phenyl)sulfonyl)benzyl)tetrahydro-2H-thiopyran-4-carboxamide 1,1-dioxide]",–,4.68 µM

# Next, values leading:
IC50 (Table 5),IC50 (Table 4),Structure (SMILES)
1.53 µM,–,"CC(C)(CCNC(=O)c1cc(F)ccc1S(C)(=O)=O)S(=O)(=O)c1cccc(C(F)(F)F)c1 [Compound 194, 5-fluoro-N-(3-methyl-3-((3-(trifluoromethyl)phenyl)sulfonyl)butyl)-2-(methylsulfonyl)benzamide]"
–,3.32 µM,"O=C(CCC(F)(F)F)NCc1cc(S(=O)(=O)c2cccc(C(F)(F)F)c2)ccn1 [Compound 114, 4,4,4-trifluoro-N-((4-((3-(trifluoromethyl)phenyl)sulfonyl)pyridin-2-yl)methyl)butanamide]"
4.36 µM,–,"CC(C)(CNC(=O)c1cnccc1C(F)(F)F)S(=O)(=O)c1cccc(C(F)(F)F)c1 [Compound 174, N-(2-methyl-2-((3-(trifluoromethyl)phenyl)sulfonyl)propyl)-4-(trifluoromethyl)nicotinamide]"
–,2.6 µM,"O=C(NCc1ccc(S(=O)(=O)c2cccc(C(F)(F)F)c2)cn1)[C@H]1CCCN1 [Compound 108, (R)-N-((5-((3-(trifluoromethyl)phenyl)sulfonyl)pyridin-2-yl)methyl)pyrrolidine-2-carboxamide]"
1.08 µM,–,"CC(C)(CNC(=O)c1ncc(C(F)(F)F)cc1S(C)(=O)=O)S(=O)(=O)c1cccc(C(F)(F)F)c1 [Compound 156, N-(2-methyl-2-((3-(trifluoromethyl)phenyl)sulfonyl)propyl)-3-(methylsulfonyl)-5-(trifluoromethyl)picolinamide]"
8.12 µM,–,"CC(C)(CNC(=O)c1ccc(S(C)(=O)=O)cc1)S(=O)(=O)c1cccc(C(F)(F)F)c1 [Compound 171, N-(2-methyl-2-((3-(trifluoromethyl)phenyl)sulfonyl)propyl)-4-(methylsulfonyl)benzamide]"
–,2.33 µM,"CS(=O)(=O)c1nc(C(F)(F)F)ccc1C(=O)NCc1ccc(S(=O)(=O)c2cccc(C(F)(F)F)c2)cn1 [Compound 92, 2-(methylsulfonyl)-6-(trifluoromethyl)-N-((5-((3-(trifluoromethyl)phenyl)sulfonyl)pyridin-2-yl)methyl)nicotinamide]"
–,1.65 µM,"O=C(NCc1ccccc1S(=O)(=O)c1cccc(C(F)(F)F)c1)c1ccnn1CC(F)(F)F [Compound 48, 1-(2,2,2-trifluoroethyl)-N-(2-((3-(trifluoromethyl)phenyl)sulfonyl)benzyl)-1H-pyrazole-5-carboxamide]"
1.56 µM,–,"CC(C)(CCNC(=O)c1ccc(C(F)(F)F)nc1S(C)(=O)=O)S(=O)(=O)c1cccc(C(F)(F)F)c1 [Compound 183, N-(3-methyl-3-((3-(trifluoromethyl)phenyl)sulfonyl)butyl)-2-(methylsulfonyl)-6-(trifluoromethyl)nicotinamide]"
–,1.17 µM,"O=C(NCc1cc(S(=O)(=O)c2cccc(C(F)(F)F)c2)ccn1)c1cn2cc(C(F)(F)F)ccc2n1 [Compound 116, 6-(trifluoromethyl)-N-((4-((3-(trifluoromethyl)phenyl)sulfonyl)pyridin-2-yl)methyl)imidazo[1,2-a]pyridine-2-carboxamide]"
–,4.07 µM,"CC(C)(N)C(=O)NCc1ccc(S(=O)(=O)c2cccc(C(F)(F)F)c2)cc1 [Compound 64, 2-amino-2-methyl-N-(4-((3-(trifluoromethyl)phenyl)sulfonyl)benzyl)propanamide]"

# From US20140113898A1, “BISARYLSULFONE AND DIALKYLARYLSULFONE COMPOUNDS AS CALCIUM CHANNEL BLOCKERS” (Zalicus Pharmaceuticals Ltd., priority 2010, published 2014)
